In PubChem BioAssay (NCI):
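How tested: cells in 96-well plates exposed to compound for 48 hours at five concentrations. TGI marks complete inhibition of growth.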

How the values were obtained:
Experiment in all cases: inhibition of tumour cell growth, NCI panel, 48 h
786-0 renal = test system: 786-0 renal
A498 renal = test system: A498 renal
A549 NSCLC = test system: A549 NSCLC
ACHN renal = test system: ACHN renal
BT-549 breast = test system: BT-549 breast
CAKI-1 renal = test system: CAKI-1 renal
CCRF-CEM leukemia = test system: CCRF-CEM leukemia
COLO 205 colon = test system: COLO 205 colon
DU-145 prostate = test system: DU-145 prostate
EKVX NSCLC = test system: EKVX NSCLC
HCC-2998 colon = test system: HCC-2998 colon
HCT-116 colon = test system: HCT-116 colon
HCT-15 colon = test system: HCT-15 colon
HL-60(TB) leukemia = test system: HL-60(TB) leukemia
HOP-62 NSCLC = test system: HOP-62 NSCLC
HOP-92 NSCLC = test system: HOP-92 NSCLC
HS 578T breast = test system: HS 578T breast
HT29 colon = test system: HT29 colon
IGROV1 ovarian = test system: IGROV1 ovarian
K-562 leukemia = test system: K-562 leukemia
KM12 colon = test system: KM12 colon
LOX IMVI melanoma = test system: LOX IMVI melanoma
M14 melanoma = test system: M14 melanoma
MALME-3M melanoma = test system: MALME-3M melanoma
MCF7 breast = test system: MCF7 breast
MDA-MB-231 breast = test system: MDA-MB-231 breast
MDA-MB-435 = test system: MDA-MB-435
MDA-N = test system: MDA-N
MOLT-4 leukemia = test system: MOLT-4 leukemia
NCI-H226 lung = test system: NCI-H226 lung
NCI-H23 lung = test system: NCI-H23 lung
NCI-H460 lung = test system: NCI-H460 lung
NCI-H522 lung = test system: NCI-H522 lung
NCI/ADR-RES ovarian = test system: NCI/ADR-RES ovarian
OVCAR-3 ovarian = test system: OVCAR-3 ovarian
OVCAR-4 ovarian = test system: OVCAR-4 ovarian
OVCAR-5 ovarian = test system: OVCAR-5 ovarian
OVCAR-8 ovarian = test system: OVCAR-8 ovarian
PC-3 prostate = test system: PC-3 prostate
RXF 393 renal = test system: RXF 393 renal
SF-268 CNS = test system: SF-268 CNS
SF-295 CNS = test system: SF-295 CNS
SF-539 CNS = test system: SF-539 CNS
SK-MEL-2 melanoma = test system: SK-MEL-2 melanoma
SK-MEL-28 melanoma = test system: SK-MEL-28 melanoma
SK-MEL-5 melanoma = test system: SK-MEL-5 melanoma
SK-OV-3 ovarian = test system: SK-OV-3 ovarian
SN12C renal = test system: SN12C renal
SNB-75 CNS = test system: SNB-75 CNS
SR leukemia = test system: SR leukemia
SW-620 colon = test system: SW-620 colon
T-47D breast = test system: T-47D breast
TK-10 renal = test system: TK-10 renal
U251 CNS = test system: U251 CNS
UACC-257 melanoma = test system: UACC-257 melanoma
UACC-62 melanoma = test system: UACC-62 melanoma
UO-31 renal = test system: UO-31 renal
RPMI-8226 leukemia = test system: RPMI-8226 leukemia
SNB-19 CNS = test system: SNB-19 CNS

c1ccc(-c2c3c(nc4c2CC[C@H]4NC2=NCCN2)[C@@H](NC2=NCCN2)CC3)cc1
TGI (786-0 renal): > 100 µM | TGI (A498 renal): > 100 µM | TGI (A549 NSCLC): > 100 µM | TGI (ACHN renal): > 100 µM | TGI (BT-549 breast): > 100 µM | TGI (CAKI-1 renal): > 100 µM | TGI (CCRF-CEM leukemia): > 100 µM | TGI (COLO 205 colon): > 100 µM | TGI (DU-145 prostate): > 100 µM | TGI (EKVX NSCLC): > 100 µM | TGI (HCC-2998 colon): > 100 µM | TGI (HCT-116 colon): > 100 µM | TGI (HCT-15 colon): > 100 µM | TGI (HL-60(TB) leukemia): > 100 µM | TGI (HOP-62 NSCLC): > 100 µM | TGI (HOP-92 NSCLC): > 100 µM | TGI (HS 578T breast): > 100 µM | TGI (HT29 colon): > 100 µM | TGI (IGROV1 ovarian): > 100 µM | TGI (K-562 leukemia): > 100 µM | TGI (KM12 colon): > 100 µM | TGI (LOX IMVI melanoma): > 100 µM | TGI (M14 melanoma): > 100 µM | TGI (MALME-3M melanoma): > 100 µM | TGI (MCF7 breast): > 100 µM | TGI (MDA-MB-231 breast): > 100 µM | TGI (MDA-MB-435): > 100 µM | TGI (MDA-N): > 100 µM | TGI (MOLT-4 leukemia): > 100 µM | TGI (NCI-H226 lung): > 100 µM | TGI (NCI-H23 lung): > 100 µM | TGI (NCI-H460 lung): > 100 µM | TGI (NCI-H522 lung): > 100 µM | TGI (NCI/ADR-RES ovarian): > 100 µM | TGI (OVCAR-3 ovarian): > 100 µM | TGI (OVCAR-4 ovarian): > 100 µM | TGI (OVCAR-5 ovarian): > 100 µM | TGI (OVCAR-8 ovarian): > 100 µM | TGI (PC-3 prostate): > 100 µM | TGI (RXF 393 renal): > 100 µM | TGI (SF-268 CNS): > 100 µM | TGI (SF-295 CNS): > 100 µM | TGI (SF-539 CNS): > 100 µM | TGI (SK-MEL-2 melanoma): > 100 µM | TGI (SK-MEL-28 melanoma): > 100 µM | TGI (SK-MEL-5 melanoma): > 100 µM | TGI (SK-OV-3 ovarian): > 100 µM | TGI (SN12C renal): > 100 µM | TGI (SNB-75 CNS): > 100 µM | TGI (SR leukemia): > 100 µM | TGI (SW-620 colon): > 100 µM | TGI (T-47D breast): > 100 µM | TGI (TK-10 renal): > 100 µM | TGI (U251 CNS): 23.6 µM | TGI (UACC-257 melanoma): > 100 µM | TGI (UACC-62 melanoma): > 100 µM | TGI (UO-31 renal): > 100 µM

COc1cc(C2SCC(=O)N2c2ccc(NC(C)=O)cc2)cc(OC)c1OC (configuration not stated)
TGI (786-0 renal): > 100 µM | TGI (A498 renal): > 100 µM | TGI (A549 NSCLC): > 100 µM | TGI (ACHN renal): > 100 µM | TGI (BT-549 breast): > 100 µM | TGI (CAKI-1 renal): > 100 µM | TGI (CCRF-CEM leukemia): > 100 µM | TGI (COLO 205 colon): > 100 µM | TGI (DU-145 prostate): > 100 µM | TGI (EKVX NSCLC): > 100 µM | TGI (HCC-2998 colon): > 100 µM | TGI (HCT-116 colon): > 100 µM | TGI (HCT-15 colon): > 100 µM | TGI (HL-60(TB) leukemia): > 100 µM | TGI (HOP-92 NSCLC): > 100 µM | TGI (HS 578T breast): > 100 µM | TGI (HT29 colon): > 100 µM | TGI (IGROV1 ovarian): > 100 µM | TGI (K-562 leukemia): > 100 µM | TGI (KM12 colon): > 100 µM | TGI (LOX IMVI melanoma): > 100 µM | TGI (M14 melanoma): > 100 µM | TGI (MCF7 breast): > 100 µM | TGI (MDA-MB-231 breast): > 100 µM | TGI (MDA-MB-435): > 100 µM | TGI (MDA-N): > 100 µM | TGI (MOLT-4 leukemia): > 100 µM | TGI (NCI-H226 lung): > 100 µM | TGI (NCI-H23 lung): > 100 µM | TGI (NCI-H460 lung): > 100 µM | TGI (NCI-H522 lung): > 100 µM | TGI (NCI/ADR-RES ovarian): > 100 µM | TGI (OVCAR-3 ovarian): > 100 µM | TGI (OVCAR-4 ovarian): > 100 µM | TGI (OVCAR-5 ovarian): > 100 µM | TGI (OVCAR-8 ovarian): > 100 µM | TGI (PC-3 prostate): > 100 µM | TGI (RPMI-8226 leukemia): > 100 µM | TGI (SF-268 CNS): > 100 µM | TGI (SF-295 CNS): > 100 µM | TGI (SF-539 CNS): > 100 µM | TGI (SK-MEL-2 melanoma): > 100 µM | TGI (SK-MEL-28 melanoma): > 100 µM | TGI (SK-MEL-5 melanoma): > 100 µM | TGI (SK-OV-3 ovarian): > 100 µM | TGI (SN12C renal): > 100 µM | TGI (SNB-19 CNS): > 100 µM | TGI (SR leukemia): > 100 µM | TGI (SW-620 colon): > 100 µM | TGI (T-47D breast): > 100 µM | TGI (TK-10 renal): > 100 µM | TGI (U251 CNS): > 100 µM | TGI (UACC-257 melanoma): > 100 µM | TGI (UACC-62 melanoma): > 100 µM | TGI (UO-31 renal): > 100 µM
